Results on 21 compounds are retold here after patent publication US9221838B2, “Inhibitors of AKT activity” (ALMAC DISCOVERY LIMITED, priority 2009, dated 2015).

What all share (assay type): biochemical
In assay [1] the target is T1, AKT1 (Homo sapiens, UniProt P31749).
T1 construct: purchased SignalChem
Put plainly: AKT Kinase Assay (IMAP fluorescent polarisation) vs AKT1. On the procedure: (§1) Testing of the compounds was performed using an AKT Kinase Assay:
(§2) Activated AKT isoforms 1, 2 and 3 were assayed utilising a 5′ FAM Crosstide (Seq. GRPRTSSFAEG-OH)(SEO ID NO: 1). The extent of kinase phosphorylation was determined by fluorescent polarisation using IMAP progressive binding reagent, which introduces binding beads which allow the reagent to specifically bind to phosphate residues via covalent co-ordination complex bonds.
(§3) iMAP binding solution stops Crosstide/kinase interaction and specifically binds phosphorylated substrates. The degree of phosphorylation is determined by fluorescent polarisation (excitation 485 nm; emission 528 nm) or the reduction in speed of rotation of the excited substrate.
(§4) The following materials were used in the assay: • a) Activated AKT isoforms (SignalChem.) dissolved in Complete Reaction buffer at a pre-determined concentration selected so that the assay was carried out in the linear range. • b) AKT substrate peptide: FAM Crosstide (R7110) Molecular Devices, diluted in complete reaction buffer. • c) iMAP Progressive Screening Express Kit (R8127) Molecular Devices • d) Complete Reaction Buffer containing 0.1% BSA, 10 mM Tris-HCl, 10 mM MgCl2, 0.05% NaN3 and 0.01% phosphate free BSA, 1 mM DTT • e) Progressive Binding Solution containing 75% Buffer A, 25% Buffer B and low volume Binding Reagent which contains the binding entity for the assay • f) ATP diluted in complete reaction buffer • g) Black polystyrene 384 well assay plates (Nunc). • h) Biotek Synergy 4 Hybrid Plate reader.
(§5) 5 μl of test compound was dissolved in DMSO (Sigma Aldrich) and serially diluted in complete reaction buffer to give a fourteen point half log dose response and plated into 384 well black plates. The compound was incubated at room temperature with activated AKT isoform ([…] ) at the pre-determined concentration, for 45 minutes.
(§6) 2.5 μl of ATP solution mixed with 2.5 μl of AKT substrate peptide (FAM Crosstide (R7110) Molecular Devices) were dispensed into each well and the plate centrifuged at 1000 rpm for 20 seconds to ensure homogenous mixing of reagents. The reaction mix was incubated in the dark for one hour at room temperature.
(§7) The kinase reaction was stopped by the addition of Progressive Binding Solution and the mixture allowed to equilibrate for one hour in the dark, at room temperature.
(§8) The fluorescent polarisation generated in each well was determined using a […] Synergy 4 Hybrid plate reader. In brief, each reaction solution was excited at 485 nm with the emission measured at 528 nm in both the parallel and perpendicular pathway.
(§9) The polarisation value generated in each well was calculated by Gen5 software (Biotek) and the % inhibition of kinase activity compared to vehicle control was calculated via GraphPad Prism. IC50 values for each compound were calculated by non-linear regression analysis using Prism software.
(§10) All plates were internally controlled by two methods. Firstly, by calculating the signal:noise ratio; based on kinase polarisation without inhibitor and polarisation generated by complete reaction buffer in the absence of activated kinase. Secondly by determining IC50 values generated by known inhibitors of the AKT isoforms.

Assay [2] addresses T2, AKT2 (Homo sapiens, UniProt P31751).
T2 construct: purchased SignalChem
Kind of assay: AKT Kinase Assay (IMAP fluorescent polarisation) vs AKT2. As for the experimental part: as §1, §2, §3, §4, §5, §6, §7, §8, §9, §10

For assay [3], the target named is T3, AKT3 (Homo sapiens, UniProt Q9Y243).
T3 construct: purchased SignalChem
Put plainly: AKT Kinase Assay (IMAP fluorescent polarisation) vs AKT3. On the procedure: as §1, §2, §3, §4, §5, §6, §7, §8, §9, §10

Some results are limits rather than exact numbers.

T3 sequence (Q9Y243 whole entry): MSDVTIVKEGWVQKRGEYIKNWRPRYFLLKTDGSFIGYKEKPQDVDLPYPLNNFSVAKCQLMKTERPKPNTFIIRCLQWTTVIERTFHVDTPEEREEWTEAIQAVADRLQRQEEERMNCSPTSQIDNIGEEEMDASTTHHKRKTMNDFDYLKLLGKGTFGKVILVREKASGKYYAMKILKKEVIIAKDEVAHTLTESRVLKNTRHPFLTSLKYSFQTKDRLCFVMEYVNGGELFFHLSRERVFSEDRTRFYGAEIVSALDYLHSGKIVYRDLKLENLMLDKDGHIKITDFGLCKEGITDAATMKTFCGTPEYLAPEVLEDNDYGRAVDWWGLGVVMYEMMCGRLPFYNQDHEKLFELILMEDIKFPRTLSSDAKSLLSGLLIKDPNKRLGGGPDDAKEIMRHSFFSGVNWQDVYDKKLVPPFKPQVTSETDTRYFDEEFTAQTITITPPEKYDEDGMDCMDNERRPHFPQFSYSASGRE
T2 sequence (P31751 whole entry): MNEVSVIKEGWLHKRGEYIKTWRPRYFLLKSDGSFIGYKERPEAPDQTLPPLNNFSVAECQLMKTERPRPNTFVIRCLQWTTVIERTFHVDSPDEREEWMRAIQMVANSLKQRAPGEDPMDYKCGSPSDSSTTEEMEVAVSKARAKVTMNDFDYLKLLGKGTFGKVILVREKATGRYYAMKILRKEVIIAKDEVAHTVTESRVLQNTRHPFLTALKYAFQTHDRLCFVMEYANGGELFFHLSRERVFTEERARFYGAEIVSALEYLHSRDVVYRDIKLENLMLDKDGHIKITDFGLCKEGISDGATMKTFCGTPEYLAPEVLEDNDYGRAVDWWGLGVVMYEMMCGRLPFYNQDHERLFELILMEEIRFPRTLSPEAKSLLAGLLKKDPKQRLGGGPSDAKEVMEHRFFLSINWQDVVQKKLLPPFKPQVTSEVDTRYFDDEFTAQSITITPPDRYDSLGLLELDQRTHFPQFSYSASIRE
T1 sequence (P31749 whole entry): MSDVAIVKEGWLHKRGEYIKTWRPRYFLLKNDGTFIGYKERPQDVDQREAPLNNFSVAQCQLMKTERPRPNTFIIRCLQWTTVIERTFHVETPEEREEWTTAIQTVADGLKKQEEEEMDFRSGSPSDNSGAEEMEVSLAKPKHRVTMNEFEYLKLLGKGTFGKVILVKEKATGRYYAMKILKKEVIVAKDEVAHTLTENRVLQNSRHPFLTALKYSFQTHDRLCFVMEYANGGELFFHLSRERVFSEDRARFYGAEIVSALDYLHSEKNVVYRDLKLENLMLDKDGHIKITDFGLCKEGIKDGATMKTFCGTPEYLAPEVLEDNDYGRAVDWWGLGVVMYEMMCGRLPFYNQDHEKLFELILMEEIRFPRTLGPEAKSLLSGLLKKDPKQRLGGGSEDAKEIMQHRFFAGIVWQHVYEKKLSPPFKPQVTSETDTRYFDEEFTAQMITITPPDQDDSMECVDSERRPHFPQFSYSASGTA

Consider `NC1(c2ccc(-c3nc4c(cc3-c3ccccc3)NC(=O)NC4)cc2)CCC1` [Example 87, 6-(4-(1-aminocyclobutyl)phenyl)-7-phenyl-3,4-dihydropyrido[3,2-d]pyrimidin-2(1H)-one], for which the IC50 was 100 to 1000 nM in assay [1], 1000 to 10000 nM in assay [2] and more than 10000 nM in assay [3].
For `NC1(c2ccc(-c3nc4c(cc3-c3ccccc3)N(C3CCC3)C(=O)CO4)cc2)CCC1` [Example 61, 6-(4-(1-aminocyclobutyl)phenyl)-1-cyclobutyl-7-phenyl-1H-pyrido[2,3-b][1,4]oxazin-2(3H)-one], the IC50 in assay [1] lay in the range of 1000 to 10000 nM; in assay [2] it was 100 to 1000 nM; in assay [3] it was 1000 to 10000 nM.
Turning to `C=CCN1C(=O)COc2nc(-c3ccc(C4(N)CCC4)cc3)c(-c3ccccc3)cc21` [Example 67, 1-allyl-6-(4-(1-aminocyclobutyl)phenyl)-7-phenyl-1H-pyrido[2,3-b][1,4]oxazin-2(3H)-one], the IC50 is 100 to 1000 nM in assay [1], not above 100 nM in assay [2] and 1000 to 10000 nM in assay [3].
In the same order, the values of `NC1(c2ccc(-c3nc4c(cc3-c3ccccc3)-n3c(CF)nnc3CO4)cc2)CCC1` [Example 120, 1-(4-(1-(fluoromethyl)-8-phenyl-4H-pyrido[2,3-b][1,2,4]triazolo[4,3-d][1,4]oxazin-7-yl)phenyl)cyclobutanamine] are not above 100 nM, 100 to 1000 nM and 100 to 1000 nM.
For `NC1(c2ccc(-c3nc4c(cc3-c3ccccc3)-n3c(nnc3C(F)(F)F)CO4)cc2)CCC1` [Example 100, 1-(4-(8-phenyl-1-(trifluoromethyl)-4H-pyrido[2,3-b][1,2,4]triazolo[4,3-d][1,4]oxazin-7-yl)phenyl)cyclobutanamine], the IC50 in assay [1] was in the range of 100 to 1000 nM; in assay [2], 1000 to 10000 nM; in assay [3], 1000 to 10000 nM.
In the case of `CC(=O)CN1C(=O)COc2nc(-c3ccc(C4(N)CCC4)cc3)c(-c3ccccc3)cc21` [Example 36, 6-(4-(1-aminocyclobutyl)phenyl)-1-(2-oxopropyl)-7-phenyl-1H-pyrido[2,3-b][1,4]oxazin-2(3H)-one], the IC50 in assay [1] was in the range of 100 to 1000 nM; in assay [2], 1000 to 10000 nM; in assay [3] it was 1000 to 10000 nM.
As for `C[C@]1(O)C[C@@](N)(c2ccc(-c3nc4c(cc3-c3ccccc3)N(CC(F)(F)F)C(=O)CO4)cc2)C1` [Example 152, 6-(4-((1r,3r)-1-amino-3-hydroxy-3-methylcyclobutyl)phenyl)-7-phenyl-1-(2,2,2-trifluoroethyl)-1H-pyrido[2,3-b][1,4]oxazin-2(3H)-one], the IC50 is 100 to 1000 nM in assay [1], not above 100 nM in assay [2] and 1000 to 10000 nM in assay [3].
In the same order, the values of `CC(C)Cc1nnc2n1-c1cc(-c3ccccc3)c(-c3ccc(C4(N)CCC4)cc3)nc1OC2` [Example 115, 1-(4-(1-isobutyl-8-phenyl-4H-pyrido[2,3-b][1,2,4]triazolo[4,3-d][1,4]oxazin-7-yl)phenyl)cyclobutanamine] are 100 to 1000 nM, 100 to 1000 nM and 1000 to 10000 nM.
In the same order, the values of `CN1C(=O)CCNc2nc(-c3ccc(C4(N)CCC4)cc3)c(-c3ccccc3)cc21` [Example 114, 7-(4-(1-aminocyclobutyl)phenyl)-1-methyl-8-phenyl-4,5-dihydro-1H-pyrido[2,3-b][1,4]diazepin-2(3H)-one] are 1000 to 10000 nM, 1000 to 10000 nM and more than 10000 nM.
In the same order, the values of `CN1C(=O)COc2nc(-c3ccc(C4(N)CCC4)cc3)c(-c3cccnc3)cc21` [Example 124, 6-(4-(1-aminocyclobutyl)phenyl)-1-methyl-7-(pyridin-3-0)-1H-pyrido[2,3-b][1,4]oxazin-2(3H)-one] are 1000 to 10000 nM, 1000 to 10000 nM and 1000 to 10000 nM.
Turning to `CN1CCOc2nc(-c3ccc(C4(N)CCC4)cc3)c(-c3ccccc3)cc21` [Example 40, 1-(4-(1-methyl-7-phenyl-2,3-dihydro-1H-pyrido[2,3-b][1,4]oxazin-6-yl)phenyl)cyclobutanamine], the IC50 in assay [1] is 100 to 1000 nM; in assay [2] it was 1000 to 10000 nM; in assay [3], more than 10000 nM.
In the same order, the values of `NC1(c2ccc(-c3nc4c(cc3-c3ccccc3)-c3n[nH]c(NCCO)c3CC4)cc2)CCC1` [Example 12, 2-((7-(4-(1-aminocyclobutyl)phenyl)-8-phenyl-4,5-dihydro-2H-pyrazolo[3,4-f]quinolin-3-yl)amino)ethanol] are not above 100 nM, 1000 to 10000 nM and more than 10000 nM.
In the case of `CN1C(=O)COc2nc(-c3ccc([C@]4(N)C[C@@H](O)C4)cc3)c(-c3ccccc3)cc21` [Example 97, 6-(4-((1s,3s)-1-amino-3-hydroxycyclobutyl)phenyl)-1-methyl-7-phenyl-1H-pyrido[2,3-b][1,4]oxazin-2(3H)-one], the IC50 in assay [1] lay within 100 to 1000 nM; in assay [2], 1000 to 10000 nM; in assay [3], 1000 to 10000 nM.
`COCC1Oc2nc(-c3ccc(C4(N)CCC4)cc3)c(-c3ccccc3)cc2N(C)C1=O` (stereo not drawn) [Example 96, 6-(4-(1-aminocyclobutyl)phenyl)-3-(methoxymethyl)-1-methyl-7-phenyl-1H-pyrido[2,3-b][1,4]oxazin-2(3H)-one]: the IC50 in assay [1] was 100 to 1000 nM; in assay [2], 1000 to 10000 nM; in assay [3], more than 10000 nM.
The like results for `CN1c2cc(-c3ccccc3)c(-c3ccc(C4(N)CCC4)cc3)nc2OCS1(=O)=O` [Example 73, 6-(4-(1-aminocyclobutyl)phenyl)-1-methyl-7-phenyl-1H-pyrido[3,2-e][1,3,4]oxathiazine 2,2-dioxide] were, in that order, 1000 to 10000 nM, 100 to 1000 nM and more than 10000 nM.
The like results for `CN(C)c1nnc2n1-c1cc(-c3ccccc3)c(-c3ccc(C4(N)CCC4)cc3)nc1OC2` [Example 116, 7-(4-(1-aminocyclobutyl)phenyl)-N,N-dimethyl-8-phenyl-4H-pyrido[2,3-b][1,2,4]triazolo[4,3-d][1,4]oxazin-1-amine] were, in that order, 1000 to 10000 nM, 1000 to 10000 nM and 1000 to 10000 nM.
In the case of `CCCc1nnc2n1-c1cc(-c3ccccc3)c(-c3ccc(C4(N)CCC4)cc3)nc1OC2` [Example 69, 1-(4-(8-phenyl-1-propyl-4H-pyrido[2,3-b][1,2,4]triazolo[4,3-d][1,4]oxazin-7-yl)phenyl)cyclobutanamine], the IC50 in assay [1] is not above 100 nM; in assay [2], 100 to 1000 nM; in assay [3] it was 1000 to 10000 nM.
The like results for `NC1(c2ccc(-c3nc4c(cc3-c3ccccc3)-n3c(nnc3-c3ccccc3)CO4)cc2)CCC1` [Example 129, 1-(4-(1,8-diphenyl-4H-pyrido[2,3-b][1,2,4]triazolo[4,3-d][1,4]oxazin-7-yl)phenyl)cyclobutanamine] were, in that order, 100 to 1000 nM, 1000 to 10000 nM and 1000 to 10000 nM.
In the same order, the values of `NC1(c2ccc(-c3nc4c(cc3-c3ccccc3)N(Cc3cnc[nH]3)C(=O)CO4)cc2)CCC1` [Example 53, 1-((1H-imidazol-5-yl)methyl)-6-(4-(1-aminocyclobutyl)phenyl)-7-phenyl-1H-pyrido[2,3-b][1,4]oxazin-2(3H)-one] are 1000 to 10000 nM, 1000 to 10000 nM and 1000 to 10000 nM.
In the same order, the values of `N#CCN1C(=O)COc2nc(-c3ccc([C@]4(N)C[C@@H](O)C4)cc3)c(-c3ccccc3)cc21` [Example 147, 2-(6-(4-((1s,3s)-1-amino-3-hydroxycyclobutyl)phenyl)-2-oxo-7-phenyl-2,3-dihydro-1H-pyrido[2,3-b][1,4]oxazin-1-yl)acetonitrile] are 100 to 1000 nM, 100 to 1000 nM and more than 10000 nM.
Regarding `NC1(c2ccc(-c3nc4c(cc3-c3ccccc3)N(c3cccnc3)C(=O)CO4)cc2)CCC1` [Example 75, 6-(4-(1-aminocyclobutyl)phenyl)-7-phenyl-1-(pyridin-3-yl)-1H-pyrido[2,3-b][1,4]oxazin-2(3H)-one], the IC50 is 1000 to 10000 nM in assay [1], 1000 to 10000 nM in assay [2] and more than 10000 nM in assay [3].

The term IC50 denotes the concentration that gives 50% inhibition.
